Several values for one entry are separate records, joined by “and”; a condition that tells them apart may be missing. Equal values may be shown once. Read-outs that look alike come from different tables or passages of the source.
Assay: Single dose oral PK study in male Sprague Dawley rats (plasma by LC-MS/MS)
Type: in vivo
Method: We describe here PK results of prodrugs of PRX-002 (−) or (+) isomers. All doses of prodrugs were administered such that they were equivalent to 5 mg/kg of PRX-002 (−) or (+) for oral studies and 2 mg/kg PRX-002 (−) or (+) for intravenous studies in male Sprague-Dawley (MSD) rats. Higher doses of up to 10 or 15 mg/kg [again equivalent to PRX-002 (−)] were used in some studies (as specified)]. Formulation preparation, dose administration and time of sample collection was as follows.
Test item was weighed [5 mg equivalent dose of PRX-002 for prodrugs] and transferred to a graduated tube. Then 10 μL of Tween 80 was added and vortexed mixed until the test item was completely mixed. Small volume of 0.5% (w/v) carboxymethylcellulose in water solution was then added dropwise with continuous vortex mixing until a uniform suspension was obtained. The final volume was then made up to 10 mL with 0.5% (w/v) carboxymethylcellulose in water with final strength of 0.5 mg/mL. […] This formulation was freshly prepared before the administration to animals.
(§1) Adult male Sprague Dawley Rats aged 8-10 weeks were used for the study. Fasted animals were administered test item by oral route with a dose of 5 mg/kg body weight at dose volume of 10 mL/kg body weight. Under mild isoflurane anesthesia, blood specimens were collected by retro-orbital puncture method using capillary tubes into pre-labeled tubes containing anticoagulant (K2EDTA-2 mg/mL blood) during the next 24 hours of post dose as mentioned in below table. For blood sampling at multiple time points, right and left eyes were used alternatively for blood collection. Collected blood specimens were centrifuged at 4000 rpm, 4° C. for 10 minutes and plasma were separated and stored at −80° C. until analysis.
Blood was collected as outlined in Table 39.1 (oral).
(§2) Test item PRX-P4-003 was weighed and transferred to a graduated tube. Then 12.42 μL of Tween 80 was added and vortexed mixed until the test item was completely mixed. Small volume of 0.5% (w/v) Carboxymethylcellulose in water solution was then added dropwise with continuous vortex mixing until a uniform suspension was obtained. The final volume was then made up to 12.42 mL with 0.5% (w/v) Carboxymethylcellulose in water with final strength of 1.0 mgA/mL. […] This formulation was freshly prepared before the administration to animals.
as §1, with “with a PRX-P4-003” for “test item”, “10” for “5”
as §2, with “PRX-P5-006” for “PRX-P4-003”, “10” for “12.42”, “3.97 mg/mL.” for “1.0 mgA/mL.”
Adult male Sprague Dawley Rats aged 8-10 weeks were used for the study. Fasted animals were administered with a PRX-P5-006 by oral route with a dose of 15 mg/kg body weight at dose volume of 10 mL/kg body weight. […]

[1] = single oral dose 5 mg/kg body weight, individual animals (R0175, R0176, R0177), plasma, 5 mg/kg

CCCCCCCCCCCCCCCCCC(=O)OC(C)OC(=O)N(CC)C1C2CCC(C2)C1c1ccccc1 (single isomer, unassigned) [PRX-P5-011, N-(1-Octadecanoyloxyethoxycarbonyl)-(+)-N-ethyl-3-phenylbicyclo[2.2.1]heptan-2-amine]
Plasma concentration of PRX-P5-011 (PRX-P5-011 oral (5 mg/kg equivalent), 0.00 h, individual animals): 0.00 ng/mL | Plasma concentration of PRX-P5-011 (PRX-P5-011 oral (5 mg/kg equivalent), 0.00 h, mean): 0.000 ng/mL | Plasma concentration of PRX-P5-011 (PRX-P5-011 oral (5 mg/kg equivalent), 0.08 h, individual animals): 0.00 ng/mL | Plasma concentration of PRX-P5-011 (PRX-P5-011 oral (5 mg/kg equivalent), 0.08 h, mean): 0.000 ng/mL | Plasma concentration of PRX-P5-011 (PRX-P5-011 oral (5 mg/kg equivalent), 0.25 h, individual animals): 0.00 ng/mL | Plasma concentration of PRX-P5-011 (PRX-P5-011 oral (5 mg/kg equivalent), 0.25 h, mean): 0.000 ng/mL | Plasma concentration of PRX-P5-011 (PRX-P5-011 oral (5 mg/kg equivalent), 0.50 h, individual animals): 0.00 ng/mL | Plasma concentration of PRX-P5-011 (PRX-P5-011 oral (5 mg/kg equivalent), 0.50 h, mean): 0.000 ng/mL | Plasma concentration of PRX-P5-011 (PRX-P5-011 oral (5 mg/kg equivalent), 1.00 h, individual animals): 0.00 ng/mL | Plasma concentration of PRX-P5-011 (PRX-P5-011 oral (5 mg/kg equivalent), 1.00 h, mean): 0.000 ng/mL | Plasma concentration of PRX-P5-011 (PRX-P5-011 oral (5 mg/kg equivalent), 2.00 h, individual animals): 0.00 ng/mL | Plasma concentration of PRX-P5-011 (PRX-P5-011 oral (5 mg/kg equivalent), 2.00 h, mean): 0.000 ng/mL | Plasma concentration of PRX-P5-011 (PRX-P5-011 oral (5 mg/kg equivalent), 4.00 h, individual animals): 0.00 ng/mL | Plasma concentration of PRX-P5-011 (PRX-P5-011 oral (5 mg/kg equivalent), 4.00 h, mean): 0.000 ng/mL | Plasma concentration of PRX-P5-011 (PRX-P5-011 oral (5 mg/kg equivalent), 6.00 h, individual animals): 0.00 ng/mL | Plasma concentration of PRX-P5-011 (PRX-P5-011 oral (5 mg/kg equivalent), 6.00 h, mean): 0.000 ng/mL | Plasma concentration of PRX-P5-011 (PRX-P5-011 oral (5 mg/kg equivalent), 24.00 h, individual animals): 0.00 ng/mL | Plasma concentration of PRX-P5-011 (PRX-P5-011 oral (5 mg/kg equivalent), 24.00 h, mean): 0.000 ng/mL | Active compound PRX-002 (+) in plasma (PRX-P5-011 oral administration): not detected | concentration at 0 h (male, Sprague-Dawley, rat, in vivo, PRX-P5-011 oral (5 mg/kg equivalent), 0.00 h, individual animals, read-out: Plasma concentration of PRX-P5-011): 0 ng/mL | concentration at 0.08 h (male, Sprague-Dawley, rat, in vivo, PRX-P5-011 oral (5 mg/kg equivalent), 0.08 h, individual animals, read-out: Plasma concentration of PRX-P5-011): 0 ng/mL | concentration at 0.25 h (male, Sprague-Dawley, rat, in vivo, PRX-P5-011 oral (5 mg/kg equivalent), 0.25 h, individual animals, read-out: Plasma concentration of PRX-P5-011): 0 ng/mL | concentration at 0.5 h (male, Sprague-Dawley, rat, in vivo, PRX-P5-011 oral (5 mg/kg equivalent), 0.50 h, individual animals, read-out: Plasma concentration of PRX-P5-011): 0 ng/mL | concentration at 1 h (male, Sprague-Dawley, rat, in vivo, PRX-P5-011 oral (5 mg/kg equivalent), 1.00 h, individual animals, read-out: Plasma concentration of PRX-P5-011): 0 ng/mL | concentration at 2 h (male, Sprague-Dawley, rat, in vivo, PRX-P5-011 oral (5 mg/kg equivalent), 2.00 h, individual animals, read-out: Plasma concentration of PRX-P5-011): 0 ng/mL | concentration at 4 h (male, Sprague-Dawley, rat, in vivo, PRX-P5-011 oral (5 mg/kg equivalent), 4.00 h, individual animals, read-out: Plasma concentration of PRX-P5-011): 0 ng/mL | concentration at 6 h (male, Sprague-Dawley, rat, in vivo, PRX-P5-011 oral (5 mg/kg equivalent), 6.00 h, individual animals, read-out: Plasma concentration of PRX-P5-011): 0 ng/mL | concentration at 24 h (male, Sprague-Dawley, rat, in vivo, PRX-P5-011 oral (5 mg/kg equivalent), 24.00 h, individual animals, read-out: Plasma concentration of PRX-P5-011): 0 ng/mL | Oral PK Parameters Tmax, Prodrug (oral 5 mg/kg [equivalent to PRX-002 (−)], analyte: prodrug in plasma, mean): 0 h

CCN[C@H]1[C@H]2CC[C@H](C2)[C@@H]1c1ccccc1 [PRX-002 (+) Isomer, (1S,2S,3R,4R)—N-Ethyl-3-phenylbicyclo[2.2.1]heptan-2-amine, reference compound]
AUC% extrap of PRX-002(+) Isomer (PRX-002 (+) Isomer oral 5 mg/kg, mean, listed as PRX-002(+) Isomer, 5 mg/kg): 18.063 ±11.646% | AUC% extrap of PRX-002(+) Isomer (PRX-002 (+) Isomer oral 5 mg/kg, mean, listed as PRX-002 (+isomer), 5 mg/kg): 18.063 ± 11.646% | AUC(0-inf) (male, Sprague Dawley, rat, in vivo, po, 5 mg/kg, single oral dose 5 mg/kg b.w., mean plasma PK parameters (mean ± SD), read-out: AUCinf): 151 ± 68.6 ng·h/mL | AUC(0-t) (male, Sprague Dawley, rat, in vivo, po, 5 mg/kg, single oral dose 5 mg/kg b.w., mean plasma PK parameters (mean ± SD), read-out: AUClast): 128 ± 74.2 ng·h/mL | Cmax (male, Sprague Dawley, rat, in vivo, po, 5 mg/kg, single oral dose 5 mg/kg b.w., mean plasma PK parameters (mean ± SD), read-out: Cmax): 107 ± 25.4 ng/mL | MRT last (male, Sprague Dawley, rat, in vivo, po, 5 mg/kg, single oral dose 5 mg/kg b.w., mean plasma PK parameters (mean ± SD), read-out: MRTlast): 57.4 ± 16.1 min | half-life (male, Sprague Dawley, rat, in vivo, po, 5 mg/kg, single oral dose 5 mg/kg b.w., mean plasma PK parameters (mean ± SD), read-out: T1/2 (converted)): 59.5 ± 13.7 min | Cmax (male, Sprague Dawley, rat, in vivo, po, 5 mg/kg, single oral dose 5 mg/kg body weight, individual animals (R0175, R0176, R0177), plasma, read-out: Cmax): 135 ng/mL | MRT last (male, Sprague Dawley, rat, in vivo, po, 5 mg/kg, single oral dose 5 mg/kg body weight, individual animals (R0175, R0176, R0177), plasma, read-out: MRTlast): 75.6 min | half-life (male, Sprague Dawley, rat, in vivo, po, 5 mg/kg, single oral dose 5 mg/kg body weight, individual animals (R0175, R0176, R0177), plasma, read-out: T1/2 (converted)): 64.2 min | AUC(0-inf) (male, Sprague Dawley, rat, in vivo, po, 5 mg/kg, single oral dose 5 mg/kg body weight, mean of N=3 (Table 39.24), read-out: AUCinf): 151 ng·h/mL | AUC(0-t) (male, Sprague Dawley, rat, in vivo, po, 5 mg/kg, single oral dose 5 mg/kg body weight, mean of N=3 (Table 39.24), read-out: AUClast): 128 ng·h/mL | Cmax (male, Sprague Dawley, rat, in vivo, po, 5 mg/kg, single oral dose 5 mg/kg body weight, mean of N=3 (Table 39.24), read-out: Cmax): 107 ng/mL | MRT last (male, Sprague Dawley, rat, in vivo, po, 5 mg/kg, single oral dose 5 mg/kg body weight, mean of N=3 (Table 39.24), read-out: MRTlast): 57.4 min | half-life (male, Sprague Dawley, rat, in vivo, po, 5 mg/kg, single oral dose 5 mg/kg body weight, mean of N=3 (Table 39.24), read-out: T1/2 (converted)): 59.5 min | Tmax (male, Sprague Dawley, rat, in vivo, single oral dose 5 mg/kg body weight, individual animals (R0175, R0176, R0177), plasma, read-out: Tmax): 30 min | AUC(0-inf) (male, Sprague-Dawley, rat, in vivo, po, 5 mg/kg, PRX-002 (+) Isomer oral 5 mg/kg, mean, read-out: AUCinf of PRX-002(+) Isomer): 151 ± 68.6 ng·h/mL | AUC(0-t) (male, Sprague-Dawley, rat, in vivo, po, 5 mg/kg, PRX-002 (+) Isomer oral 5 mg/kg, mean, read-out: AUClast of PRX-002(+) Isomer): 128 ± 74.2 ng·h/mL | Cmax (male, Sprague-Dawley, rat, in vivo, po, 5 mg/kg, PRX-002 (+) Isomer oral 5 mg/kg, mean, read-out: Cmax of PRX-002(+) Isomer): 107 ± 25.4 ng/mL | MRT last (male, Sprague-Dawley, rat, in vivo, po, 5 mg/kg, PRX-002 (+) Isomer oral 5 mg/kg, mean, read-out: MRTlast of PRX-002(+) Isomer): 57.4 ± 16.1 min | half-life (male, Sprague-Dawley, rat, in vivo, po, 5 mg/kg, PRX-002 (+) Isomer oral 5 mg/kg, mean, read-out: T1/2 of PRX-002(+) Isomer (converted)): 59.5 ± 13.7 min | Tmax (male, Sprague-Dawley, rat, in vivo, PRX-002 (+) Isomer oral 5 mg/kg, mean, read-out: Tmax of PRX-002(+) Isomer): 30 min | AUC% extrap (single oral dose 5 mg/kg b.w., mean plasma PK parameters (mean ± SD)): 18.063 ± 11.646% | AUC% extrap [1]: 6.89% and 30.13% and 17.17% | AUCinf [1]: 229.43 ng·h/mL and 124.51 ng·h/mL and 100.4 ng·h/mL | AUClast [1]: 213.62 ng·h/mL and 87 ng·h/mL and 83.16 ng·h/mL | Cmax [1]: 85.44 ng/mL and 99.85 ng/mL | MRTlast [1]: 51.6 min and 45 min | T1/2 [1]: 70.2 min and 44.4 min | AUC% extrap (single oral dose 5 mg/kg body weight, mean of N=3 (Table 39.24)): 18.063%

— patent US10662146B2, “Prodrugs of fencamfamine” (Praxis Bioresearch, LLC, priority 2015, dated 2020)
